Source: paper PMC2933614, “Quantitative in vitro and in vivo pharmacological profile of CE-178253, a potent and selective cannabinoid type 1 (CB1) Receptor Antagonist” (BMC Pharmacology, 2010)
“Also recorded” adds a separate entry of the source.

Legend:
GPR55 = GPR55 (Homo sapiens, UniProt Q9Y2T6); experiment: GPR55 functional assay; format: biochemical; conditions: 10 μM
Excerpt: Rimonabant also binds weakly to the Vanilloid 1 (TRPV1) receptor channel. […] CE-178253 was not evaluated against TRPM8. Rimonabant has been reported to bind to TRPM8 [21].

[1] = Four day chow-fed rat food intake and body weight study; format: in vivo; conditions: chow-fed rats
Experimental: CE-178253 was evaluated in 4-day chow-fed and DIO S-D rat studies. Male 12-16 week old S-D rats which had been maintained on regular chow were singly housed and acclimated to handling and dosing and two days of food intake were recorded to establish baseline food intake values before dosing was initiated. The animals were randomly sorted and assigned to treatment groups (n = 7-8 per group). Two studies were performed. In study 1 (age = 12 weeks) the mean starting weight of all animals was 370 ± 6 g. In study 2 (age = 16 weeks) the mean starting weight of all animals was 431 ± 11 g. Rats were dosed (2 mls/kg) with veh. or CE-178253 according to body weight. FI and BW were recorded daily.
CE-178253 was also evaluated in chow-fed rats in a 4 day FI and BW study. Rats were treated once daily with veh. (0.5% MC) or CE-178253. In the first study the same doses used in the DIO study were used to compare FI and BW efficacy. […] CE-178253 was clearly efficacious in acute food intake studies in chow-fed rats up to 12 hours (Figure 3). A comparison of 24 hr FI in chow-fed and DIO rats yielded different efficacy in response to CE-178253 treatment. The 1 mg/kg dose yielded an 8% decrease in 24 hr FI compared to veh-treated animals (p = 0.053). […] Initial and final body weights of veh-treated rats were 371 ± 7 g and 390 ± 7 g (n = 8), respectively. Initial and final body weights of 0.3 mg/kg CE-178253-treated rats were 374 ± 7 g and 388 ± 9 g, respectively. Initial and final body weights of 1 mg/kg CE-178253-treated rats were 373 ± 7 g and 390 ± 9 g, (respectively.
Based on the weak efficacy observed at the 0.3 and 1 mg/kg doses the study was repeated using higher doses of CE-178253 (Figures 7A and 7B). At 3 and 10 mg/kg (QD, p.o.) doses, statistically significant decreases in FI and BW were observed. Initial and final body weights of veh.-treated rats were 435 ± 11 g and 451 ± 12 g (n = 8), respectively, […]. Initial and final body weights of 3 mg/kg CE-178253-treated rats were 436 ± 9 g and 427 ± 9 g, respectively, a 2% decline. Initial and final body weights of 10 mg/kg CE-178253-treated rats were 435 ± 11 g and 430 ± 10 g, respectively, […]. […] Thus, as has been reported for other CB1 receptor antagonists it is likely that DIO rats are more sensitive to the anorectic and weight loss effect of CE-178253.

Sequence of GPR55 (Q9Y2T6 whole entry, species assumed): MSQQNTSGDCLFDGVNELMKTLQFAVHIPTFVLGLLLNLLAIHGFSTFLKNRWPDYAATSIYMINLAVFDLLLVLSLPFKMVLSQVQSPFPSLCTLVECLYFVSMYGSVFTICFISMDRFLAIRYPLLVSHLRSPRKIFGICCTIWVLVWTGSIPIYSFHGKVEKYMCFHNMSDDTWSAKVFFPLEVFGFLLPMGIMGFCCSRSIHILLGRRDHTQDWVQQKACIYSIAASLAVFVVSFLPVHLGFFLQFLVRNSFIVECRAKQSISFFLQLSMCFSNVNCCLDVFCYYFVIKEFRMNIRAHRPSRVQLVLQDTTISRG

CCNC1(C(N)=O)CN(c2nc(C)nc3c(-c4ccc(Cl)cc4)c(-c4ccccc4Cl)nn23)C1 [CE-178253]
Agonist activity at GPR55 (GPR55): No agonist activity was detected; also recorded: GPR55 (no activity at 10 μM) | Final body weight ([1]; 0.3 mg/kg, 4 day, initial 374 ± 7 g): 388 ± 9 g | Final body weight ([1]; 1 mg/kg, 4 day, initial 373 ± 7 g): 390 ± 9 g | Decrease in 24 hr FI compared to veh-treated animals ([1]; 1 mg/kg, p = 0.053): 8% | Decline in body weight, initial to final ([1]; 3 mg/kg QD p.o., 4 day): 2% | Final body weight ([1]; 3 mg/kg QD p.o., 4 day, initial 436 ± 9 g): 427 ± 9 g | Increase in body weight, initial to final ([1]; 10 mg/kg QD p.o., 4 day): 1% | Final body weight ([1]; 10 mg/kg QD p.o., 4 day, initial 435 ± 11 g): 430 ± 10 g | BW changes vs veh ([1]; 0.3 and 1 mg/kg dosing groups, 4 day): No statistically significant differences
